How the values were obtained:
ERα = target: T1, ERα (Mus musculus, UniProt P19785); test: ERα+ cells in mouse uterus; type: in vivo; settings: mouse uterine tissue after the uterotrophic assay
T1 sequence (P19785 1-599): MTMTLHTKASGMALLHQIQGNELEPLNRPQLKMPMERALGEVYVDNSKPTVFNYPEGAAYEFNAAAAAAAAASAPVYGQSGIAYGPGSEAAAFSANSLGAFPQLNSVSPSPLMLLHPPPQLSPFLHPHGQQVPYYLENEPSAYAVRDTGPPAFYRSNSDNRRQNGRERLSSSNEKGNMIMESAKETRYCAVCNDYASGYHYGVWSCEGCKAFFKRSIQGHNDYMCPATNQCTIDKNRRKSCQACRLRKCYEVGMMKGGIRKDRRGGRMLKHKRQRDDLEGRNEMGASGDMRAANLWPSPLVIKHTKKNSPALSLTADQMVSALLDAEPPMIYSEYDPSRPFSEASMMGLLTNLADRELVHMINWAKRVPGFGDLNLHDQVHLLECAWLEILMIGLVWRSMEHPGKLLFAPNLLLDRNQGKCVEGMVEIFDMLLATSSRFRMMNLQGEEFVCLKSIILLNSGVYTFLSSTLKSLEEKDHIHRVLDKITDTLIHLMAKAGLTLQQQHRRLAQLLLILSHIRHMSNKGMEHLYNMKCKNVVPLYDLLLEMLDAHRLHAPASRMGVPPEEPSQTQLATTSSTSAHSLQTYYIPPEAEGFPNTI

[1] = test system: uterus of ovariectomized mice; test: Mouse uterotrophic assay; type: in vivo; settings: 240 μg in combination with E2 (10 ng), sc, 4 days
IL-6 = test: TNFα-induced IL-6 secretion in MCF-7 cells; type: cell-based, human; settings: MCF-7, 10 ng/ml TNFα, ligand 10 μM, 24 hr
[2] = test system: complement component C3, lactoferrin, and aquaporin 5; test: Uterine expression of E2-regulated genes; type: in vivo, mouse; settings: ovariectomized mice, 4 days

## C[C@]12CC[C@@H]3c4ccc(O)cc4C[C@@H](CCCCCCCCC[S+]([O-])CCCC(F)(F)C(F)(F)F)[C@H]3[C@@H]1CC[C@@H]2O (some centres unmarked) [fulvestrant]
ERα
  ERα expression in uterus (ERα+ cells): robustly inhibited ERα expression
[1]
  effect on E2-stimulated uterine growth: significantly reduced the E2-stimulated uterine growth
IL-6
  inhibition of TNFα-induced IL-6 secretion: did not inhibit IL-6 secretion
[2]; 240 μg in combination with E2 (10 ng)
  effect on E2-stimulated expression of genes in uterus: markedly reduced the E2-stimulated expression levels of these genes
[2]; 240 μg
  expression of E2-induced genes in uterus (compound alone): failed to increase the expression of E2-induced genes
